Experimental data taken from patent US20230000813A1, “COMPOUND FOR THE TREATMENT OF BOVINE OR SWINE RESPIRATORY DISEASE” (Intervet Inc., priority 2016, published 2023).
Values after ≈ are worked out from the molar mass of the structure shown. Values joined by “and” are separate entries in the source; they are usually repeats but may differ in a detail not shown here. Identical values can stand only once.

What was measured:
[1] = test system: Mannheimia haemolytica MH 10720 (154, BRD field isolate); experiment: MIC, broth-microdilution (CLSI VET01-A4); format: cell-based; settings: strain MH 10720
Procedure, shortened: (§1)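 Doubling dilution series in microdilution trays; endpoint = lowest conc. without visible growth (no turbidity, unaided eye); interpretation per CLSI VET01-S3.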

[2] = test system: Mannheimia haemolytica MH 12587 (1071, BRD field isolate, macrolide-resistance: erm+, E+); experiment: MIC, broth-microdilution (CLSI VET01-A4); format: cell-based; settings: strain MH 12587, macrolide-resistant
Procedure, shortened: as §1

[3] = test system: Mannheimia haemolytica MH 6357 (M7/2, reference strain, cattle infection strain); experiment: MIC, broth-microdilution (CLSI VET01-A4); format: cell-based; settings: strain MH 6357
Procedure, shortened: as §1

[4] = test system: Mannheimia haemolytica MH 6374 (ATCC 33396, reference strain); experiment: MIC, broth-microdilution (CLSI VET01-A4); format: cell-based; settings: strain MH 6374
Procedure, shortened: as §1

[5] = test system: Pasteurella multocida PM 10775 (080130003051, BRD field isolate); experiment: MIC, broth-microdilution (CLSI VET01-A4); format: cell-based; settings: strain PM 10775
Procedure, shortened: as §1

[6] = test system: Pasteurella multocida PM 12080 (IV102277-0093, BRD field isolate); experiment: MIC, broth-microdilution (CLSI VET01-A4); format: cell-based; settings: strain PM 12080
Procedure, shortened: as §1

[7] = test system: Pasteurella multocida PM 6267 (P 2225 (L386), reference strain, mouse infection strain); experiment: MIC, broth-microdilution (CLSI VET01-A4); format: cell-based; settings: strain PM 6267
Procedure, shortened: as §1

[8] = test system: Pasteurella multocida PM 6391 (ATCC 43137, reference strain); experiment: MIC, broth-microdilution (CLSI VET01-A4); format: cell-based; settings: strain PM 6391
Procedure, shortened: as §1

[9] = test system: Acinetobacter baumanii AB 15919 (IV369-2012, dermatitis field isolate); experiment: MIC, broth-microdilution (CLSI VET01-A4); format: cell-based; settings: strain AB 15919
Protocol: (§2) The Minimum inhibitory concentrations (MIC) of compounds according to the invention were determined by the broth-microdilution method according to CLSI document VET01-A4.
(§3) Microdilution trays containing a doubling dilution series of the test compound were used for the tests.
(§4) The MIC results were interpreted according to the CLSI documents VET01-S3. The lowest concentration of compound at which no visible growth (i.e. no turbidity) detected by the unaided eye was recorded as the MIC.

[10] = test system: Acinetobacter baumanii AB 16496 (ATCC 19606, reference strain); experiment: MIC, broth-microdilution (CLSI VET01-A4); format: cell-based; settings: strain AB 16496
Protocol: as §2, §3, §4

[11] = test system: Mannheimia haemolytica MH 12180 (KLI-02944, BRD field isolate); experiment: MIC, broth-microdilution (CLSI VET01-A4); format: cell-based; settings: strain MH 12180
Protocol: as §2, §3, §4

[12] = test system: Pasteurella multocida PM 14426 (0006-439, BRD field isolate, macrolide-resistant); experiment: MIC, broth-microdilution (CLSI VET01-A4); format: cell-based; settings: strain PM 14426, macrolide-resistant
Protocol: as §2, §3, §4

[13] = test system: Staphylococcus aureus SA 5816 (2139, mastitis field isolate); experiment: MIC, broth-microdilution (CLSI VET01-A4); format: cell-based; settings: strain SA 5816
Protocol: as §2, §3, §4

[14] = test system: Staphylococcus aureus SA 6114 (ATCC 29213, reference strain); experiment: MIC, broth-microdilution (CLSI VET01-A4); format: cell-based; settings: strain SA 6114
Protocol: as §2, §3, §4

[15] = test system: 20 isolates of Actinobacillus (A.) pleuropneumoniae; experiment: MIC50/MIC90, broth-microdilution, European respiratory tract isolates; format: cell-based
Protocol: (§5) The in vitro activity of compounds against 20 isolates of Actinobacillus (A.) pleuropneumoniae, 20 of Bordetella (B.) bronchiseptica, 20 of Histophilus (H.) somni, 40 of Mannheimia (M.) haemolytica and 40 of Pasteurella (P.) multocida collected in different European countries were determined. All bacteria were isolated from the respiratory tract of swine and cattle suffering from respiratory disease. All isolates were epidemiologically unrelated as specified by the different suppliers.
(§6) The minimum inhibitory concentrations (MIC) of compounds according to the invention were determined by the broth-microdilution method according to CLSI document VET01-A4.
(§7) Microdilution trays containing a doubling dilution series of the test compounds were used for the tests.
as §4

[16] = test system: 20 isolates of Bordetella (B.) bronchiseptica; experiment: as above; format: cell-based
Protocol: as §5, §6, §7, §4

[17] = test system: 20 isolates of Histophilus (H.) somni; experiment: as above; format: cell-based
Protocol: as §5, §6, §7, §4

[18] = test system: 40 isolates of Mannheimia (M.) haemolytica; experiment: as above; format: cell-based
Protocol: as §5, §6, §7, §4

[19] = test system: 40 isolates of Pasteurella (P.) multocida; experiment: as above; format: cell-based
Protocol: as §5, §6, §7, §4

M. haemolytica M7/2 = experiment: Mannheimia haemolytica cattle lung infection model, efficacy (Example 9); format: in vivo, cattle calves; settings: for Food consumption, cumulated for all animals in the group: 3 calves, SC 10 mg/kg BW
Protocol: (§8) Unless otherwise described the study was conducted as described in Example 8.
Calves were infected via intratracheal instillation of appr. 300 mL of M. haemolytica PBS suspension containing approximately 4×10^9 CFU M. haemolytica in late log phase on Day 0.
The following clinical findings were recorded: The general behavior scores of the animals before (DO am) and after infection with M. haemolytica in the different treated and control groups are indicated in FIG. 7-1: 0 =normal; 1=slightly depressive, 2=moderately depressive, 3=highly depressive, […] recumbency.
The following pathomorphological findings after section on Day 2 were recorded: After measuring the body weight and the lung weight the Lung body mass ratio was calculated as shown in FIG. 7-2. A healthy animal has a lung body mass ration around 1.7 or lower. The area percentage of lung consolidations compared to the total lung tissue and the lung score determined that is a combined score of such percentage of lung consoldiations and the grade. For the “grade” the degree of lung consolidation score was graded from 0 to 3 for each of eight lung lobes: 0 no visible changes, 1 low graded colour changes or induration, 2 medium graded induration, 3 high graded induration, hepatisation, necrosis.
The geometrical means (CFU/g tissue) of bacteriological re-isolations of Mannheimia haemolytica from lung tissue are illustrated in FIG. 7-4.

[20] = Plasma and tissue concentrations and pharmacokinetics in infected calves (Example 9); format: in vivo, cattle calves
Protocol: as §8

[21] = calves infected with M. haemolytica, SC, single, 10 mg/kg BW, x = number of animals, n = total in group
[22] = SC single 10 mg/kg (C.105, C.189 in 10% Poloxamer 188; C.326 in 30% Captisol), individual animals and mean
[23] = SC single 10 mg/kg (C.105, C.189 in 10% Poloxamer 188; C.326 in 30% Captisol), individual animals and mean, 10 mg/kg
[24] = plasma, SC 10 mg/kg, mean, Phoenix WinNonlin

**Q.** Which results are given for COCCNCc1ccc(C#Cc2ccc(C(=O)N[C@H](C(=O)NO)[C@@H](C)O)cc2)s1 [C. 189]?
**A.** MIC [1]: 0.125 µg/mL (≈ 0.29 µM); MIC [2]: 1 µg/mL (≈ 2.32 µM); MIC [3]: 0.5 µg/mL (≈ 1.16 µM); MIC [4]: 0.25 µg/mL (≈ 0.579 µM); MIC [5]: ≤0.016 µg/mL; MIC [6]: 0.063 µg/mL (≈ 0.146 µM); MIC [7]: 0.5 µg/mL (≈ 1.16 µM); MIC [8]: 0.25 µg/mL (≈ 0.579 µM); MIC [9]: >16 µg/mL; MIC [10]: >16 µg/mL; MIC [11]: 0.25 µg/mL (≈ 0.579 µM); MIC [12]: 0.032 µg/mL (≈ 0.0742 µM); MIC [13]: >16 µg/mL; MIC [14]: >16 µg/mL; MIC50 [15]: 0.25 µg/mL (≈ 0.579 µM); MIC90 [15]: 0.25 µg/mL (≈ 0.579 µM); MIC50 [16]: >16 µg/mL; MIC90 [16]: >16 µg/mL; MIC50 [17]: 0.032 µg/mL (≈ 0.0742 µM); MIC90 [17]: 0.063 µg/mL (≈ 0.146 µM); MIC50 [18]: 0.25 µg/mL (≈ 0.579 µM); MIC90 [18]: 0.5 µg/mL (≈ 1.16 µM); MIC50 [19]: 0.032 µg/mL (≈ 0.0742 µM); MIC90 [19]: 0.063 µg/mL (≈ 0.146 µM); Food consumption, cumulated for all animals in the group (M. haemolytica M7/2; D 0 am, after infection and treatment): 4800 g; Food consumption, cumulated for all animals in the group (M. haemolytica M7/2; D 0 pm): 4800 g; Food consumption, cumulated for all animals in the group (M. haemolytica M7/2; D +1 am): 4800 g; Food consumption, cumulated for all animals in the group (M. haemolytica M7/2; D +1 pm): 4800 g; Food consumption, cumulated for all animals in the group (M. haemolytica M7/2; D −1 (before infection)): 4800 g; Bacteriological Cure (x of n) (M. haemolytica M7/2; [21]): 1/3; Survival (x of n) (M. haemolytica M7/2; [21]): 3/3; efficacy against an artificial lung infection with M. haemolytica M7/2 in the calf (M. haemolytica M7/2; tested dosage of 10 mg/kg, conclusion in words): effective; Concentration, Plasma 48 h [20, 22]: BLQ; Concentration, Tissue (48 h) ELF [20, 22]: BLQ; Concentration, Tissue (48 h) Liver [20, 22]: 22.5 ng/mL; Concentration, Tissue (48 h) Lung [20, 22]: BLQ; Concentration, Tissue (48 h) Muscle [20, 22]: BLQ; Concentration, Plasma 0.5 h [20, 23]: 916 ng/mL and 892 ng/mL and 1350 ng/mL; Concentration, Plasma 2 h [20, 23]: 465 ng/mL and 663 ng/mL and 788 ng/mL; Concentration, Plasma 4 h [20, 23]: 433 ng/mL and 300 ng/mL and 430 ng/mL; Concentration, Plasma 6 h [20, 23]: 339 ng/mL and 293 ng/mL and 289 ng/mL; Concentration, Plasma 24 h [20, 23]: 31.3 ng/mL and 20.3 ng/mL and 21.8 ng/mL; Concentration, Tissue (48 h) Kidney [20, 23]: BLQ (2×) and 25.1 ng/mL; Concentration, Tissue (48 h) Liver [20, 23]: BLQ; AUClast [20, 24]: 6236 ng·h/mL; CI_F_obs [20, 24]: 26.08 mL/min/kg; Cmax [20, 24]: 1053 ng/mL; HL_Lambda_z (Half life time) [20, 24]: 4.98 h; MRTlast (Mean retention time till last measured value) [20, 24]: 4.75 h; Tmax [20, 24]: 0.5 h; Vz_F_obs [20, 24]: 11.2 L/kg; Concentration, Plasma 0 h ([20]; predose, SC single 10 mg/kg (C.105, C.189 in 10% Poloxamer 188; C.326 in 30% Captisol), individual animals and mean): BLQ
